For twelve compounds, TGI and GI50 results are on record in PubChem BioAssay (NCI).

Common to all, as to assay: NCI tumour cell line growth inhibition, 48 h
For assay [1], the system named is NCI/ADR-RES ovarian.
Assay [2] concerns COLO 205 colon.
In assay [3] the test system is SNB-75 CNS.
The subject of assay [4] is 786-0 renal.
Assay [5] deals with LOX IMVI melanoma.
Assay [6] has as its system MALME-3M melanoma.
For assay [7], the system named is MCF7 breast.
Assay [8] concerns UACC-257 melanoma.
Assay [9] deals with UACC-62 melanoma.
Assay [10] relates to T-47D breast.

Molecules are shown by their SMILES. Several values for one entry are separate records, joined by “and”; a condition that tells them apart may be missing. Equal values may be shown once.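 Exposure lasted 48 hours, with cells grown in 96-well plates and compounds tested at five concentrations. Abbreviation: GI50, concentration required for 50% inhibition of growth. TGI marks complete inhibition of growth.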

Consider `Cc1ccc(S(=O)/C=C(\NC(=O)OCc2ccccc2)C(F)(F)F)cc1` (centres undefined), for which the TGI is over 100 µM in assay [1]; over 100 µM in [2]; 91.4 µM in assay [3]; over 100 µM in assay [4]; over 100 µM in assay [5]; over 100 µM in [6]. For the same compound, the TGI in [7], in assay [8], in assay [9] and in assay [10] was over 100 µM each time.
For the compound `CC(=O)OCc1ccc(-c2nc(C#N)c(N)o2)o1`, the TGI in [1], in assay [2], in assay [3], in [4], in assay [5] and in [6] was over 10 µM throughout. In addition, the TGI in assay [7], in assay [8], in [9] and in assay [10] was over 10 µM in each case.
As to `CC(=O)c1nc2ccccc2n1CC(=O)c1ccc([N+](=O)[O-])cc1`, the TGI was 49.2 µM in [1]; over 100 µM in assay [2]; over 100 µM in assay [3]; 15.9 µM in assay [4]; 23.2 µM in assay [5]; 33.2 µM in assay [6]. Further, the TGI in assay [7] is 58.8 µM; in [8] it was over 100 µM; in assay [9], 60.9 µM; in [10] it was over 100 µM.
Take `CC(=O)OCC1OC(n2c(-c3ccccc3)c(N=Nc3ccc(Cl)cc3)c(C)c(C#N)c2=S)C(OC(C)=O)C(OC(C)=O)C1OC(C)=O` (centres undefined): the GI50 in [1] was 6.76 µM and 33.2 µM; in assay [2], 28 µM and > 100 µM; in assay [3], 25.5 µM and 4.24 µM; in assay [5], 11.2 µM and > 100 µM; in assay [6], 20.1 µM and > 100 µM; in assay [7] it was 10.2 µM and 28.2 µM. For the same compound, the GI50 was 16.5 µM and > 100 µM in [8]; 3.2 µM and 14.4 µM in assay [9]; 6.86 µM and 27.2 µM in [10]. Besides, the TGI was over 100 µM in [1]; 57.5 µM and > 100 µM in assay [2]; > 100 µM and 26.4 µM in [3]; > 100 µM and 88.6 µM in assay [4]; 43.3 µM and > 100 µM in assay [5]; over 100 µM in assay [6]. Further, the TGI was 24.4 µM and > 100 µM in assay [7]; over 100 µM in assay [8]; 15 µM and > 100 µM in assay [9]; 47.3 µM and > 100 µM in [10].
Regarding `Cc1ccc(S(=O)(=O)OC2CN3CCC2CC3)cc1` (centres undefined), the TGI in assay [1], in assay [2], in [3], in assay [4], in assay [5] and in assay [6] was over 100 µM throughout. For the same compound, the TGI in assay [7], in assay [8], in assay [9] and in assay [10] was over 100 µM each time.
For the compound `C(=N\NC1=NCCCN1)/c1ccc(-c2cn3cc(/C=N/NC4=NCCCN4)ccc3n2)cc1`, the TGI was over 100 µM in [1]; over 100 µM in [2]; over 100 µM in assay [3]; over 100 µM in assay [4]; over 100 µM in [5]; 87.4 µM in assay [6]. The TGI in assay [7], in assay [8], in assay [9] and in assay [10] was over 100 µM throughout.
With `C=C(C)C1CC2=C(C(=O)OC)C=C(O2)C(C(=C)C)[C@@H]2OC(=O)/C(=C\C1O)[C@H]2N(C)C` (some centres undefined), the TGI in assay [1] came to 26 µM; in [2], 29 µM; in [3] it was 30.4 µM; in assay [4] it was 21 µM; in assay [5], 24.2 µM; in [6], 34.5 µM. The TGI in assay [7] was found to be 24.9 µM; in assay [8], 37.1 µM; in [9] it was 28.3 µM; in assay [10], 45.9 µM.
Take `S=C1c2cc(Cl)ccc2NC(=NC2CCCC2)C2CSCN12` (centres undefined): the TGI in assay [1], in [2], in [3], in [4], in [5] and in assay [6] was over 100 µM each time. For the same compound, the TGI in [7], in [8], in assay [9] and in assay [10] was over 100 µM each time.
As to `O=[N+]([O-])c1ccccc1S(=O)(=O)N1CCCc2cc(Cl)ccc21`, the TGI in assay [1] was over 89.1 µM; in assay [2], over 100 µM; in [3] it was over 100 µM; in [4] it was over 100 µM; in assay [5], over 100 µM; in assay [6], over 100 µM. In addition, the TGI was over 80.3 µM in assay [7], over 96.1 µM in assay [8], over 100 µM in [9] and 96.5 µM in assay [10].
On to `C[N+](C)(C)CCCCCc1c2nc(c(CCCCC[N+](C)(C)C)c3ccc([nH]3)c(CCCCC[N+](C)(C)C)c3ccc([nH]3)c(CCCCC[N+](C)(C)C)c3nc1C=C3)C=C2`, for which the TGI in assay [1], in [2], in assay [3], in assay [4], in assay [5] and in assay [6] was over 100 µM throughout. The TGI in [7], in assay [8], in [9] and in assay [10] was over 100 µM each time.
Regarding `CCOC(=O)c1cc(-c2ccc(OC)c(OC)c2)cn1C`, the TGI in assay [1], in assay [2], in assay [3], in [4], in assay [5] and in assay [6] was over 10 µM each time. Further, the TGI in [7], in assay [8], in [9] and in [10] was over 10 µM throughout.
With `CC1OC(OC2C(CO)OC(O[C@H]3CC[C@@]4(C)C(=CC[C@H]5[C@@H]6C[C@@H]7O[C@](O)(CC[C@@H](C)COC8OC(CO)C(O)C(O)C8O)[C@@H](C)[C@@H]7[C@@]6(C)CC[C@@H]54)C3)C(OC3OC(C)C(O)C(O)C3O)C2O)C(O)C(O)C1O` (some centres undefined), the TGI in assay [1] came to 4.22 µM; in assay [2], 6.81 µM; in assay [3], 3.26 µM; in [4], 3.89 µM; in [5], 3.17 µM; in assay [6], 4.1 µM. The TGI in assay [7] was 5.93 µM; in assay [8], 14.5 µM; in [9], 5.68 µM; in assay [10] it was 17.9 µM.
